According to PubChem BioAssay AID1963869 (Molecular Pharmacology Branch, DTP, NCI, 2024):

Test system: KRAS patient-derived spheroids with HUVEC/MSC, viability
Assay: Anticancer human tumor 323965-272-R-J2-PDC patient-derived pancreatic carcinoma cell line growth inhibition [KRAS2]
Settings: for IC50: curve of first compound; for viability, T/C: stronger effect = lower value
Method in brief: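 KRAS-mutant tumor cells were grown as spheroids with HUVEC endothelial cells and human MSCs as stroma. Targeted agents were tested alone and with KRAS pathway inhibitors. Doses started at or near clinical Cmax, or 10 microM, descending half-log.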

[1] = second compound 0.1 µM, first compound 0.0316 µM
[2] = second compound 0.1 µM, first compound 0.1 µM
[3] = second compound 0.1 µM, first compound 0.316 µM
[4] = second compound 0.1 µM, first compound 1 µM
[5] = second compound 0.1 µM, first compound 3.16 µM
[6] = second compound 0.1 µM, first compound 10 µM
[7] = second compound 0.316 µM, first compound 0.0316 µM
[8] = second compound 0.316 µM, first compound 0.1 µM
[9] = second compound 0.316 µM, first compound 0.316 µM
[10] = second compound 0.316 µM, first compound 1 µM
[11] = second compound 0.316 µM, first compound 3.16 µM
[12] = second compound 0.316 µM, first compound 10 µM
[13] = second compound 1 µM, first compound 0.0316 µM
[14] = second compound 1 µM, first compound 0.1 µM
[15] = second compound 1 µM, first compound 0.316 µM
[16] = second compound 1 µM, first compound 1 µM
[17] = second compound 1 µM, first compound 3.16 µM
[18] = second compound 1 µM, first compound 10 µM
[19] = second compound 3.16 µM, first compound 0.0316 µM
[20] = second compound 3.16 µM, first compound 0.1 µM
[21] = second compound 3.16 µM, first compound 0.316 µM
[22] = second compound 3.16 µM, first compound 1 µM
[23] = second compound 3.16 µM, first compound 3.16 µM
[24] = second compound 3.16 µM, first compound 10 µM
[25] = second compound 10 µM, first compound 0.0316 µM
[26] = second compound 10 µM, first compound 0.1 µM
[27] = second compound 10 µM, first compound 0.316 µM
[28] = second compound 10 µM, first compound 1 µM
[29] = second compound 10 µM, first compound 3.16 µM
[30] = second compound 10 µM, first compound 10 µM
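Note: spheroids exposed to agents for 7 days.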
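Throughout, for viability, T/C: 100% = DMSO vehicle control viability.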

Row | Compound | IC50 (second compound 0.1 µM) [nM] | IC50 (second compound 0.316 µM) [nM] | IC50 (second compound 1 µM) [nM] | IC50 (second compound 3.16 µM) [nM] | IC50 (second compound 10 µM) [nM] | viability, T/C [1] [%] | viability, T/C [2] [%] | viability, T/C [3] [%] | viability, T/C [4] [%] | viability, T/C [7] [%] | viability, T/C [8] [%] | viability, T/C [9] [%] | viability, T/C [10] [%] | viability, T/C [13] [%] | viability, T/C [14] [%] | viability, T/C [15] [%] | viability, T/C [16] [%] | viability, T/C [19] [%] | viability, T/C [20] [%] | viability, T/C [21] [%] | also measured
1 | CC(C)NCC(C(=O)N1CCN(c2ncnc3c2C(C)CC3O)CC1)c1ccc(Cl)cc1 (stereo not given) + COc1cc2nc(C)nc(NC(C)c3cc(N)cc(C(F)(F)F)c3)c2cc1OC1CCOC1 | 708 | 541 | 207 | 123 | 200 | 84.9 | 76 | 59.7 | 45.4 | 72.1 | 71.1 | 56.2 | 42.2 | 72.3 | 67.3 | 39.5 | 30.1 | 61.4 | 53 | 38.2 | viability, T/C [5]: 37.2%; viability, T/C [6]: 31.3%; viability, T/C [11]: 28%; viability, T/C [12]: 24.5%; viability, T/C [17]: 27.8%; viability, T/C [18]: 22.6%; viability, T/C [22]: 28.6%; viability, T/C [23]: 24.8%; viability, T/C [24]: 21.8%; viability, T/C [25]: 57%; viability, T/C [26]: 68.9%; viability, T/C [27]: 41.4%; viability, T/C [28]: 39%; viability, T/C [29]: 28.4%; viability, T/C [30]: 26.3%
2 | CCN1CCN(Cc2ccc(Nc3ncc(F)c(-c4cc(F)c5nc(C)n(C(C)C)c5c4)n3)nc2)CC1 + COc1cc2nc(C)nc(NC(C)c3cc(N)cc(C(F)(F)F)c3)c2cc1OC1CCOC1 | 90.2 | 25.9 | 32.6 | 21.9 | 75.6 | 59.5 | 48.2 | 44.4 | 51.4 | 50 | 41.7 | 37.8 | 48.3 | 51.4 | 42.9 | 41 | 48.3 | 43.8 | 39.1 | 32.7 | viability, T/C (second compound 0.1 µM, first compound 0.00316 µM): 85.5%; viability, T/C (second compound 0.1 µM, first compound 0.01 µM): 78.3%; viability, T/C (second compound 0.316 µM, first compound 0.00316 µM): 75.2%; viability, T/C (second compound 0.316 µM, first compound 0.01 µM): 59%; viability, T/C (second compound 1 µM, first compound 0.00316 µM): 65.7%; viability, T/C (second compound 1 µM, first compound 0.01 µM): 59.9%; viability, T/C (second compound 3.16 µM, first compound 0.00316 µM): 85.2%; viability, T/C (second compound 3.16 µM, first compound 0.01 µM): 64%; viability, T/C [22]: 49.5%; viability, T/C (second compound 10 µM, first compound 0.00316 µM): 86.6%; viability, T/C (second compound 10 µM, first compound 0.01 µM): 74%; viability, T/C [25]: 53.4%; viability, T/C [26]: 48.7%; viability, T/C [27]: 39.9%; viability, T/C [28]: 22.4%
3 | CCNC(=O)CC1N=C(c2ccc(Cl)cc2)c2cc(OC)ccc2-n2c(C)nnc21 (stereo not given) + COc1cc2nc(C)nc(NC(C)c3cc(N)cc(C(F)(F)F)c3)c2cc1OC1CCOC1 | 247 | 246 | 238 | 189 | 170 | 80.3 | 68.8 | 44.2 | 34.2 | 69.8 | 64.2 | 45.4 | 32.5 | 76.3 | 65.3 | 44.8 | 32 | 74.5 | 58.8 | 43.9 | viability, T/C [5]: 30.3%; viability, T/C [6]: 28.9%; viability, T/C [11]: 26.8%; viability, T/C [12]: 25.2%; viability, T/C [17]: 30.2%; viability, T/C [18]: 25.5%; viability, T/C [22]: 29.3%; viability, T/C [23]: 26.2%; viability, T/C [24]: 26.6%; viability, T/C [25]: 72.8%; viability, T/C [26]: 60.4%; viability, T/C [27]: 37.7%; viability, T/C [28]: 29%; viability, T/C [29]: 28%; viability, T/C [30]: 25.7%
